Test results reported in US9320276B2, “N-hetarylmethyl pyrazolylcarboxamides” (BAYER INTELLECTUAL PROPERTY GMBH, priority 2010, dated 2016).

What was measured:
[1] = logP by HPLC on reversed-phase column (EEC Directive 79/831 Annex V.A8); format: physicochemical; conditions: 40° C., 0.1% aqueous formic acid and acetonitrile, linear gradient 10% to 90% acetonitrile
In short: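 Reversed-phase C18 HPLC at 40° C with 0.1% aqueous formic acid/acetonitrile, linear gradient 10% to 90% acetonitrile. LogP obtained from retention time by linear interpolation between successive unbranched alkan-2-ones (3 to 16 carbons) of known logP. Lambda-max taken from UV spectra at 200-400 nm at chromatographic peak maxima.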

Sphaerotheca fuliginea = assay: in vivo preventive test on Sphaerotheca fuliginea (cucumber); conditions: 500 ppm of active ingredient, evaluated 7 days after inoculation
Protocol: Solvent: 49 parts by weight of N,N-dimethylformamide Emulsifier: 1 part by weight of Alkylarylpolyglycolether To produce a suitable preparation of active compound, 1 part by weight of active compound is mixed with the stated amounts of solvent and emulsifier, and the concentrate is diluted with water to the desired concentration. To test for preventive activity, young plants are sprayed with the preparation of active compound at the stated rate of application. One day after this treatment, the plants are inoculated with an aqueous spore suspension of Sphaerotheca fuliginea. Then the plants are placed in a greenhouse at approximately 23° C. and a relative atmospheric humidity of approximately 70%. The test is evaluated 7 days after the inoculation. 0% means an efficacy which corresponds to that of the untreated control, while an efficacy of 100% means that no disease is observed.

Alternaria solani = assay: in vivo preventive test on Alternaria solani (tomato); conditions: 500 ppm of active ingredient, evaluated 7 days after inoculation
In short: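 Young tomato plants were sprayed preventively with compound in DMF/alkylarylpolyglycolether diluted in water, then inoculated one day later with A. solani spores. Incubation was 1 day at about 22 °C and 100% RH, then about 20 °C and 96% RH. Efficacy was scored 7 days after inoculation (0% = untreated control, 100% = no disease).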

Pyrenophora teres = assay: in vivo preventive test on Pyrenophora teres (barley); conditions: 500 ppm of active ingredient, evaluated 7-9 days after inoculation
In short: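 Young barley plants sprayed with compound in DMF/alkylaryl polyglycol ether emulsion; inoculated with P. teres spores one day later. 48 h at 22 °C, 100% humidity, then greenhouse ~20 °C, ~80% humidity; efficacy scored 7-9 days post-inoculation, 0% = untreated, 100% = no disease.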

Venturia inaequalis = assay: in vivo preventive test on Venturia inaequalis (apple scab); conditions: 100 ppm of active ingredient, evaluated 10 days after inoculation
Protocol: Solvent: 24.5 parts by weight of acetone • 24.5 parts by weight of N,N-dimethylacetamide Emulsifier: 1 part by weight of alkylaryl polyglycol ether To produce a suitable preparation of active compound, 1 part by weight of active compound is mixed with the stated amounts of solvent and emulsifier, and the concentrate is diluted with water to the desired concentration. To test for preventive activity, young plants are sprayed with the preparation of active compound at the stated rate of application. After the spray coating has dried on, the plants are inoculated with an aqueous conidia suspension of the causal agent of apple scab (Venturia inaequalis) and then remain for 1 day in an incubation cabinet at approximately 20° C. and a relative atmospheric humidity of 100%. The plants are then placed in a greenhouse at approximately 21° C. and a relative atmospheric humidity of approximately 90%. The test is evaluated 10 days after the inoculation. 0% means an efficacy which corresponds to that of the untreated control, while an efficacy of 100% means that no disease is observed.

Septoria tritici = assay: in vivo preventive test on Septoria tritici (wheat); conditions: 500 ppm of active ingredient, evaluated 21 days after inoculation
Protocol: Solvent: 49 parts by weight of N,N-dimethylacetamide Emulsifier: 1 part by weight of alkylaryl polyglycol ether To produce a suitable preparation of active compound, 1 part by weight of active compound or active compound combination is mixed with the stated amounts of solvent and emulsifier, and the concentrate is diluted with water to the desired concentration. To test for preventive activity, young plants are sprayed with the preparation of active compound or active compound combination at the stated rate of application. After the spray coating has been dried, the plants are sprayed with a spore suspension of Septoria tritici. The plants remain for 48 hours in an incubation cabinet at approximately 20° C. and a relative atmospheric humidity of approximately 100% and afterwards for 60 hours at approximately 15° C. in a translucent incubation cabinet at a relative atmospheric humidity of approximately 100%. The plants are placed in the greenhouse at a temperature of approximately 15° C. and a relative atmospheric humidity of approximately 80%. The test is evaluated 21 days after the inoculation. 0% means an efficacy which corresponds to that of the untreated control, while an efficacy of 100% means that no disease is observed.

[2] = tested on: Fusarium nivale (var. majus); assay: in vivo curative test on Fusarium nivale (wheat); conditions: 500 ppm of active ingredient, evaluated 5 days after inoculation
Protocol: Solvent: 49 parts by weight of N,N-dimethylacetamide Emulsifier: 1 part by weight of alkylaryl polyglycol ether To produce a suitable preparation of active compound, 1 part by weight of active compound or active compound combination is mixed with the stated amounts of solvent and emulsifier, and the concentrate is diluted with water to the desired concentration. To test for curative activity, young plants are slightly injured by using a sandblast and afterwards they are sprayed with a conidia suspension of Fusarium nivale (var. majus) and placed for 24 hours in a greenhouse under a translucent incubation cabinet at a temperature of approximately 10° C. and a relative atmospheric humidity of approximately 100% and are subsequently sprayed with the preparation of active compound at the stated rate of application. After the spray coating has been dried, the plants remain in the greenhouse under translucent incubation cloches at a temperature of approximately 10° C. and a relative atmospheric humidity of approximately 100%. The test is evaluated 5 days after the inoculation. 0% means an efficacy which corresponds to that of the untreated control, while an efficacy of 100% means that no disease is observed.

[3] = HPLC on reversed-phase column (C 18)

Structure (SMILES)	logP [1, 3]	Efficacy (Sphaerotheca fuliginea) [%]	Efficacy (Alternaria solani) [%]	Efficacy (Pyrenophora teres) [%]	Efficacy (Venturia inaequalis) [%]	Efficacy (Septoria tritici) [%]	Efficacy [2] [%]	logP ([1]; HPLC, reversed-phase column (C 18))
CC(c1cc2ccccc2o1)N(C(=O)c1c(C(F)F)nn(C)c1F)C1CC1 (racemic) [Example 70]	3.42	98	100	100	100	100	100	–
CC(c1cc2ccccc2s1)N(C(=O)c1c(C(F)F)nn(C)c1F)C1CC1 (racemic) [Example 80]	3.69	99	–	100	100	100	93	–
CC(c1cccc2ccsc12)N(C(=O)c1c(C(F)F)nn(C)c1F)C1CC1 (centres unmarked) [Example 91]	3.44	88	95	100	100	100	71	–
Cn1nc(C(F)F)c(C(=S)N(Cc2cccc3ccsc23)C2CC2)c1F [Example 95]	3.83	88	95	100	99	80	86	–
CC(c1cc(Cl)sc1Cl)N(C(=O)c1c(C(F)F)nn(C)c1F)C1CC1 (centres unmarked) [Example 128]	4.03	98	100	100	100	90	100	–
Cc1sc(-c2ccccc2)cc1C(C)N(C(=O)c1c(C(F)F)nn(C)c1F)C1CC1 (centres unmarked) [Example 147]	4.41	88	95	100	100	80	92	–
CC(C)c1nn(-c2ccccc2)c(Cl)c1CN(C(=O)c1c(C(F)F)nn(C)c1F)C1CC1 [Example 169]	–	100	100	100	–	100	83	3.94
